Data reported in patent US20190345505A1, “METHODS FOR REGULATING EXTRACTABLE PROANTHOCYANIDINS (PAS) IN PLANTS BY AFFECTING LEUCOANTHOCYANIDIN REDUCTASE (LAR)” (University of North Texas, priority 2016, published 2019).

Legend:
mutated LAR (LAR/K143G) = test: Conversion of 4β-(S-cysteinyl)-epicatechin to epicatechin by mutated LAR (negative control); assay type: biochemical, Medicago truncatula; settings: 40 μM substrate, 50 μM NADPH, 5 μg protein, 1 h, room temperature
Experimental: The full length LAR cDNA was cloned into pMal-c5x vector (New England Biolab) at the XmnI and BamHI sites. Mutations, which convert the lysine 143 codon to a glycine codon, were introduced into LAR cDNA by over-lapping PCR. The expression constructs were transformed into E. coli strain Rosetta™ 2(DE3)pLysS (EMD Millipore) competent cells. Transformed bacteria were grown in LB medium supplemented with 0.2% glucose to OD 600 of 0.5, and IPTG was added at 0.3 mM to induce protein expression. Bacteria were harvested after 4 h induction. LAR proteins were purified with amylose resin (NEB, E8021) following the manufacturer's protocol. Briefly, bacteria were lysed by sonication at 4° C. in extraction buffer (20 mM Tris pH 7.0, 200 mM NaCl, 1 mM DTT, 1 mM PMSF). […]
The above analyses indicate that the 21 minute fraction above contains cysteine and glucuronic acid conjugates of epicatechin, as well as a glucoside conjugate of epicatechin cysteine. Of these compounds, epicatechin cysteine was determined to be the best candidate for being a substrate for LAR. […] The ethyl acetate extract was dried under vacuum, dissolved in 50 μL water and analyzed by UPLC/MS.
Reactions without NADPH or LAR, with NADP^+, and with mutated LAR (LAR/K143G) were run in parallel as negative controls. Reactions were analyzed by UPLC/MS in negative mode. […] Epicatechin-cysteine content was quantified by EIC. […]

DMACA reactivity = assay type: physicochemical; settings: Five μL of 1 mM compound added to 200 mL 0.2% DMACA stain solution
Experimental: Seeds of the lar mutant accumulated more than twice the level of 4β-(S-cysteinyl)-epicatechin than wild-type plants (FIGS. 14B and 14C), whereas none was detected in the anr mutant, and MYB5 over-expressing hairy roots accumulated more than three times the level of epicatechin-cysteine found in MYB14 over-expressing hairy roots. […] DMACA reactivity of epicatechin-cysteine was also measured. Five μL of 1 mM epicatechin or epicatechin-cysteine were added to 200 mL 0.2% DMACA stain solution. OD values of absorbance at 640 nm were measured as: Epicatechin=OD 0.71, Epicatechin-cysteine=OD 0.34, and Blank=OD 0.05. Epicatechin-cysteine reacted with DMACA reagent to produce a less intense blue color than epicatechin, consistent with the weak DMACA staining of lar mutant seeds.

[1] = biological target: T1, LAR from Desmodium uncinatum (Desmodium uncinatum, UniProt Q84V83); settings: Tanner et al. 2003; read-out: reported Km of LAR towards leucocyanidin; cited from earlier work
T1 sequence (Q84V83 1-382): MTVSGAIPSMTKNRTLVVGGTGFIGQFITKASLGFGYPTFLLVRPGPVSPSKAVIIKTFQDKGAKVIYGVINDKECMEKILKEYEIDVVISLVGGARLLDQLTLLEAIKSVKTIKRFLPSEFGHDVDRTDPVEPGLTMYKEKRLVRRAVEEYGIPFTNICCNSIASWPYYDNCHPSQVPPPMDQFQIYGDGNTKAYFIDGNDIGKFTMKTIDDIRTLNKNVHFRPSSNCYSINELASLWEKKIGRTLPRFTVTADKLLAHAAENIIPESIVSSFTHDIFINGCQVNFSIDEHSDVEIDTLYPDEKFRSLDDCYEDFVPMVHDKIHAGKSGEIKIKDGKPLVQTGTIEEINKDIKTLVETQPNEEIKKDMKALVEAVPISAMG

Compound | activity of mutated LAR on substrate (epicatechin formation, UPLC/MS) (mutated LAR (LAR/K143G)) | OD values of absorbance at 640 nm (DMACA reactivity) (DMACA reactivity) [OD] | Km [1] [µM]
N[C@@H](CS[C@H]1c2c(O)cc(O)cc2O[C@H](c2ccc(O)c(O)c2)[C@@H]1O)C(=O)O [4β-(S-cysteinyl)-epicatechin] | no activity | 0.34 | –
Oc1cc(O)c2c(c1)OC(c1ccc(O)c(O)c1)C(O)C2O (stereo not drawn) [leucocyanidin] | – | – | 6
